As a reminder, the IC50 is the concentration that inhibits the measured activity by half.

Six molecules from patent publication US10173995B2, “Pyridine compounds used as PI3 kinase inhibitors” (Teligene Ltd., priority 2013, dated 2019) can be followed below.

In one series the test system is A549 cell line xenograft. As to the kind of experiment: In vivo subcutaneous A549 cell line xenograft model in nude mice, tumor growth inhibition. Conditions: for Tumor growth inhibition (TGI, %) at 14 days: day 14, A549 xenograft nude mice. How it is done:
(§1) A representative protocol for the in vivo experiment is as follows to establish the subcutaneous A549 cell line xenograft model in nude mice and to evaluate the in vivo therapeutic efficacy of the compounds: A549 cells were cultured in RPMI1640 containing 10% fetal bovine serum, 1% L-glutamine, 100 U/mL penicillinG and 100 μg/mL streptomycin. Cells in logarithmic growth phase were harvested and resuspended in 1×PBS for implantation.
(§2) Tumor xenografts were established by injecting tumor cells 5×10^6/mouse into the right flank by sc under sterile conditions. When the tumors reached an appropriate size (100-200 mm^3), mice were randomized into 6 mice per group (8 mice in control group). The tumors were measured using a caliper in two dimensions, length (a), and width (b). Tumor volumes were estimated from measurements of two diameters of the individual tumors as follows: Tumor Volume(mm^3)=(a×b^2)/2 The tumor sizes and animal body weights were measured twice a week. Mice were observed daily for clinical signs. Blood samples were collected 2 hours after last treatment; plasma samples were prepared and stored at −80° C. Tumor tissues were separated, weighed, taken picture, and subsequently stored at −80° C. for further analysis. All animal experiments were performed in accordance with the Guidelines for Use and Care of Animals of the University of Traditional Medicine. The parameters for in vivo efficacy evaluation were calculated according to the guidance of SFDA. Percent T/C (%) was calculated with the following formula: T/C(%)=(TRTV/CRTV)×100%, where TRTV and CRTV stand for relative tumor volume in treatment group and vehicle control group, respectively. Relative tumor volume (RTV) was calculated using the formula: RTV=Vt/V0, where Vt represents volume on testing day, and V0 represents volume on first day of treatment. Tumor growth inhibition (TGI, %) were calculated as TGI (%)=(Ctw−Ttw)/Ctw×100%, where Ctw and Ttw represent mean tumor weight in vehicle control and treatment group, respectively.
(§3) Compound Preparation: Test articles were dissolved in 100% N-methylpyrrolidone (NMP) and 10× solutions were prepared every five days, aliquotted, and stored in the dark at room temperature. On each treatment day, stock solution aliquots were diluted with polyethylene glycol (PEG300) to provide the formulated drug in 10% NMP: 90% PEG300. Dosing solutions were protected from light, and the formulated drug was administered within 1 hour after preparation. In all groups, the dosing volume of 10 mL/kg (0.2 mL/20 g mouse) was scaled to the weight of each animal as determined on the day of dosing, except on weekends when the previous BW is carried forward. Test articles were administered by oral gavage (p.o.) once daily until the end of the study.
(§4) At study endpoint, after blood collection, mice were practiced euthanasia by cervical dislocation, the tumor tissue was collected first, then abdominal cavity was cut open, liver and spleen were excised, then weight after the gallbladder was removed respectively. Organ weight between the treated versus the control groups were compared.

The subject of series [1] is MCF-7 human breast cancer cell lines. As to the kind of experiment: MCF-7 cell proliferation assay (CCK-8/WST-8, 72 hours). It counts as cell-based. Conditions: MCF7, WST-8. Here is the method:
A representative number of compounds were assayed against MCF-7 human breast cancer cell lines using the cell proliferation assay:
1. MCF-7 cells were cultured in EMEM (GIBCO, Cat#41500) medium supplemented with 10% fetal bovine serum, 0.01 mg/ml human recombinant insulin and 1% penicillin-streptomycin solution, in the temperature of 37° C., 5% CO2 and 95% humidity. The cells were harvested during the logarithmic growth period and counted with hemocytometer. The cell viability will be over 98% by trypan blue exclusion. Cell Counting Kit-8 (Dojindo, Cat# CK04) was used. 2. A cell suspension (100 μl) was added into 96-well plates (triplicates for each cell concentration), the cell density was 4.0×10^3/well. The next day, the test articles or positive drug stock solution were dissolved in DMSO at the concentration of 10 mM, the stock solutions were diluted with DMSO by serial 3 or 10 fold dilution. Then the test articles dilutions were further diluted with culture medium to the final concentrations of (10.0 μM, 3.33 μM, 1.11 μM, 366 nM, 122 nM, 40.7 nM, 13.6 nM, 4.52 nM and 0 nM), the positive drug dilutions were further diluted with culture medium to 9 final concentrations of (10 μM, 1 μM, 100 nM, 10 nM, 1 nM, 0.1 nM, 0.01 nM, 0.001 nM and 0 nM). […] The absorbance was recorded at 450 nm using Victor Multilabel Plate Reader. […]
On the technique in general: Formazan colour is commonly taken as a measure of viable cells.

The nature of series [2]: Kidney weight change versus control in A549 xenograft model in nude mice. It counts as in vivo. Conditions: day 21, A549 xenograft nude mice. Here is the method:
as §1, §2, §3, §4

A further series has as its target PI3K alpha (PIK3CA) (Homo sapiens (Human), UniProt P42336). As to the kind of experiment: In vitro assay of ability to inhibit PI3K alpha activity (phage-tagged kinase competition binding, qPCR). How it is done: (§5) (a) An in vitro assay which determines the ability of a test compound to inhibit PI3K alpha activity: PI3 alpha (PIK3CA) kinase-tagged T7 phage strains were prepared in an E. coli host derived from the BL21 strain. E. coli were grown to log-phase and infected with T7 phage and incubated with shaking at 32° C. until lysis. The lysates were centrifuged and filtered to remove cell debris. The remaining kinases were produced in HEK-293 cells and subsequently tagged with DNA for qPCR detection. […] The liganded beads were blocked with excess biotin and washed with blocking buffer (SeaBlock (Pierce), 1% BSA, 0.05% Tween 20, 1 mM DTT) to remove unbound ligand and to reduce non-specific binding. Binding reactions were assembled by combining kinases, liganded affinity beads, and test compounds in 1× binding buffer (20% SeaBlock, 0.17×PBS, 0.05% Tween 20, 6 mM DTT). All reactions were performed in polystyrene 96-well plates in a final volume of 0.135 ml. The assay plates were incubated at room temperature with shaking for 1 hour and the affinity beads were washed with wash buffer (1×PBS, 0.05% Tween 20). […] The kinase concentration in the eluates was measured by qPCR.
An 11-point 3-fold serial dilution of each test compound was prepared in 100% DMSO at 100× final test concentration and subsequently diluted to 1× in the assay (final DMSO concentration=1%).
Binding constants (Kd's) were calculated with a standard dose-response curve using the Hill equation: Response=Background+(Signal−Background)/(1+(Kd^Hill Slope/Dose^Hill Slope)) The Hill Slope was set to −1. Curves were fitted using a non-linear least square fit with the Levenberg-Marquardt algorithm.

Series [3] has as its target MTOR (Mammalian target of rapamycin) (Homo sapiens (Human), UniProt P42345). As to the kind of experiment: In vitro assay of ability to inhibit MTOR (same conditions as PI3K alpha assay). It is filed as binding. Conditions: read-out: IC50 for MTOR inhibition. How it is done:
as §5, with “qPCR. […]” for “qPCR.”
Binding constants (Kd's) were calculated with a standard dose-response curve using the Hill equation: Response=Background+(Signal−Background)/(1+(Kd^Hill Slope/Dose^Hill Slope)) The Hill Slope was set to −1. […]

Setting [4] is: 49 μmol/kg oral gavage once daily.
Setting [5] is: 98 μmol/kg oral gavage once daily.

Chain of PI3K alpha (PIK3CA) (P42336 whole entry, species assumed): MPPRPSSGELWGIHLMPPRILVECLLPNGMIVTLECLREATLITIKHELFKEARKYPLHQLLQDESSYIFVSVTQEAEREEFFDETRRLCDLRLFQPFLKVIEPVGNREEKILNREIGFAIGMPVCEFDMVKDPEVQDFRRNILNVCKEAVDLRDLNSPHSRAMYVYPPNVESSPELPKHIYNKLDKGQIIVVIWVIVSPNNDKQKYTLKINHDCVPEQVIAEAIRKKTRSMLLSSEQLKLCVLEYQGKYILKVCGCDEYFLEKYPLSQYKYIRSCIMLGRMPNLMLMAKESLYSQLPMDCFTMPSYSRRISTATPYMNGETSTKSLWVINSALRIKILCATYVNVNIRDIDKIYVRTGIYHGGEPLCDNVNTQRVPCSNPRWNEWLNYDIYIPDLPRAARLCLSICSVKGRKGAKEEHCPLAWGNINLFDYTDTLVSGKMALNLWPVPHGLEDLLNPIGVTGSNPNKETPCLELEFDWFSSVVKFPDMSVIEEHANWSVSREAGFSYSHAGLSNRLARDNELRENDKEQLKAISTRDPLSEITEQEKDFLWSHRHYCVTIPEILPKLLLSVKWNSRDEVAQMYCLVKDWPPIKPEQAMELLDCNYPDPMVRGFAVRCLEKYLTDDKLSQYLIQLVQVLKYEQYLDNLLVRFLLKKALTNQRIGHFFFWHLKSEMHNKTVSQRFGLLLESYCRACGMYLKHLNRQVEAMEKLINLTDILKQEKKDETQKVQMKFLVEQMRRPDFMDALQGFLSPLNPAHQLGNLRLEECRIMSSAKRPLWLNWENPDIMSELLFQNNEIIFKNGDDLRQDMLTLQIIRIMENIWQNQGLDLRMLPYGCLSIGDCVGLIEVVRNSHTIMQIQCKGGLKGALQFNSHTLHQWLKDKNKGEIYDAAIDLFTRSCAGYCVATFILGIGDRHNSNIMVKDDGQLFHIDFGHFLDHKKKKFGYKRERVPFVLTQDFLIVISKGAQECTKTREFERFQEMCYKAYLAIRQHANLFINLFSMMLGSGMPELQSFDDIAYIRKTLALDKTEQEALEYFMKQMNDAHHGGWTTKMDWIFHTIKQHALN

Take `Nc1cc(C(F)(F)F)c(-c2cc(N3CCOCC3)nc(N3CCOCC3)n2)cn1` [Compound 1, 5-(2,6-Dimorpholinopyrimidin-4-yl)-4-(trifluoromethyl)pyridin-2-amine, reference compound]: the “Tumor growth inhibition (TGI, %) at 14 days” value was 36% with A549 cell line xenograft (setting [4]) and 70% in the series with A549 cell line xenograft (setting [5]). For the same molecule, inhibition in series [1] was half-maximal at 0.186 µM (IC50). Further, the entries for the “Kidney weight change compared to the control at 21 days” value in series [2] (setting [4]) and in series [2] (setting [5]) were −8.7% and −20.1%, respectively.

With `CC(=O)Nc1cc(C(F)(F)F)c(-c2cc(N3CCOCC3)nc(N3CCOCC3)n2)cn1` [Compound 2, N-(5-(2,6-dimorpholinopyrimidin-4-yl)-4-(trifluoromethyl)pyridin-2-yl)acetamide], the results for the “Tumor growth inhibition (TGI, %) at 14 days” value in the series with A549 cell line xenograft (setting [4]) and in the series with A549 cell line xenograft (setting [5]) were 52% and 82%, respectively. The molecule further returned an IC50 in series [1] of 0.0824 µM.

For `CNc1cc(C(F)(F)F)c(-c2cc(N3CCOCC3)nc(N3CCOCC3)n2)cn1` [Compound 4, 5-(2,6-dimorpholinopyrimidin-4-yl)-N-methyl-4-(trifluoromethyl)pyridin-2-amine], at PI3K alpha (PIK3CA), the IC50 amounted to 0.0019 µM.

`CCNc1cc(C(F)(F)F)c(-c2cc(N3CCOCC3)nc(N3CCOCC3)n2)cn1` [Compound 5, 5-(2,6-dimorpholinopyrimidin-4-yl)-N-ethyl-4-(trifluoromethyl)pyridin-2-amine] gave a concentration for half-maximal inhibition (IC50) at PI3K alpha (PIK3CA) of 0.01 µM.

Molecule `CCCNc1cc(C(F)(F)F)c(-c2cc(N3CCOCC3)nc(N3CCOCC3)n2)cn1` [Compound 6, 5-(2,6-dimorpholinopyrimidin-4-yl)-N-propyl-4-(trifluoromethyl)pyridin-2-amine] came in with an IC50 at PI3K alpha (PIK3CA) of 0.06 µM.

For the molecule `NCC(=O)Nc1cc(C(F)(F)F)c(-c2cc(N3CCOCC3)nc(N3CCOCC3)n2)cn1` [Compound 9, 2-amino-N-(5-(2,6-dimorpholinopyrimidin-4-yl)-4-(trifluoromethyl)pyridin-2-yl)acetamide], the figures for the IC50 (in series [3]; at PI3K alpha (PIK3CA)) were 0.026 µM and 0.00084 µM, respectively. Besides, the “Efficacy in A549 xenograft model at day 21 (in words)” value with A549 cell line xenograft (49 μmol/kg dose, day 21) is recorded as “better efficacy than Compound 1”. Further, the “Kidney weight change compared to the control at 21 days” value is −5.0% in series [2] (setting [4]) and −8.1% in series [2] (setting [5]). Moreover, in series [2], the “Kidney weight decrease compared with the control (in words)” value is listed as “much less decreased kidney weight than Compound 1”.
